Measurements taken from US12180193B2, “Accelerating fibrosarcoma protein degrading compounds and associated methods of use” (Arvinas Operations, Inc., priority 2020, dated 2024).

Tests used:
BRAF V600E = target: T1, BRAF V600E (Homo sapiens, UniProt P15056, V600E); assay: Cellular assay of target protein degradation, T-Rex 293 cells stably transfected with HA-BRAF_V600E (HA immunofluorescence, high content imaging); type: cell-based; conditions: T-Rex 293 HA-BRAF V600E; for DC50: half maximal degradation, read-out: BRaf V600E DC50; for Dmax: maximum degradation observed
T1 construct: expressed in transfected cells
T1 sequence (P15056 whole entry V600E): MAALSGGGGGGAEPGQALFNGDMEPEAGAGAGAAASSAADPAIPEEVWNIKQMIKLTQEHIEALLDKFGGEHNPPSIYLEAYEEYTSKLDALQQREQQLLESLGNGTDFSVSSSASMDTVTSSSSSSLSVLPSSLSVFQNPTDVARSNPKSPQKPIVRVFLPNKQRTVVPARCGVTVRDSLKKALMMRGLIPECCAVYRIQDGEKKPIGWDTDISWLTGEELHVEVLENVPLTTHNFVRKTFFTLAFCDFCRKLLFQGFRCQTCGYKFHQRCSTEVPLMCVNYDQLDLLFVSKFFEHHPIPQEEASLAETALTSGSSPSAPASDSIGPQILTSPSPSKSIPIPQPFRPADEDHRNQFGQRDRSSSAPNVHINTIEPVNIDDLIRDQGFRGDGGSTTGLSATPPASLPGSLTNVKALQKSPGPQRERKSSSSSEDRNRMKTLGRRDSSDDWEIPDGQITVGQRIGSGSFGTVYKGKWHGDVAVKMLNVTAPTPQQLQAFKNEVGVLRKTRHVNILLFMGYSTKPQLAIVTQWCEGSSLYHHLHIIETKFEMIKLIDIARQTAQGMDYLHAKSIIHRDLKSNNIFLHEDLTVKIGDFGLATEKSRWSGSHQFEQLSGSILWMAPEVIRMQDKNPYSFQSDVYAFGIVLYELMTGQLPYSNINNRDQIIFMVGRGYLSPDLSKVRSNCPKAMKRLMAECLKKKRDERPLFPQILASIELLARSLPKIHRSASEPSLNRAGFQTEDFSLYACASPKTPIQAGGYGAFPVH
How it was run: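 Degradation of the HA-tagged construct is measured after 24 h treatment at 37 °C across 1 μM to 0.1 nM in 0.1% DMSO, in doxycycline-induced (1 ng/mL) cells. DC50 and Dmax come from HA fluorescence imaging.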

BRAF G466V = target: T2, BRAF G466V (Homo sapiens, UniProt P15056, G466V); assay: Cellular assay of target protein degradation, T-Rex 293 cells stably transfected with HA-BRAF G466V (HA immunofluorescence, high content imaging); type: cell-based; conditions: T-Rex 293 HA-BRAF G466V; for DC50: half maximal degradation, read-out: BRaf G466V DC50; for Dmax: maximum degradation observed
T2 construct: expressed in transfected cells
T2 sequence (P15056 whole entry G466V): as the sequence (P15056 whole entry V600E) above, with G466V, E600V counted along it
How it was run: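 Dose range spans 30 nM to 3 pM (0.1% DMSO) over 24 hours at 37° C, in cells induced with 0.75 ng/mL doxycycline. Fixed cells are probed with anti-HA antibody overnight at 4° C, then imaged; half-maximal degradation and maximum degradation are derived.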

Structure (SMILES)	DC50 (BRAF V600E) [nM]	Dmax (BRAF V600E) [%]	DC50 (BRAF G466V) [nM]	Dmax (BRAF G466V) [%]
CCCS(=O)(=O)Nc1ccc(F)c(C(=O)c2c[nH]c3ncc(-c4ccc(N5CCC(CN6CCC(c7ccc8c(c7)CN(C7CCC(=O)NC7=O)C8=O)CC6)CC5)cc4)cc23)c1F (centres unmarked) [Compound 236, N-[3-(5-{4-[4-({4-[2-(2,6-dioxopiperidin-3-yl)-1-oxo-2,3-dihydro-1H-isoindol-5-yl]piperidin-1-yl}methyl)piperidin-1-yl]phenyl}-1H-pyrrolo[2,3-b]pyridine-3-carbonyl)-2,4-difluorophenyl]propane-1-sulfonamide]	5 to 50	35 to 70	< 1	> 70
C[C@H]1C[C@@H](CN2CCC(c3ccc4c(c3)CN([C@H]3CCC(=O)NC3=O)C4=O)CC2)CCN1c1ccc(-c2cnc3[nH]cc(C(=O)c4c(F)ccc(NS(=O)(=O)N5CC[C@@H](F)C5)c4F)c3c2)cc1 [Compound 239, (3R)-N-[3-(5-{4-[(2S,4S)-4-[(4-{2-[(3S)-2,6-dioxopiperidin-3-yl]-1-oxo-2,3-dihydro-1H-isoindol-5-yl}piperidin-1-yl)methyl]-2-methylpiperidin-1-yl]phenyl}-1H-pyrrolo[2,3-b]pyridine-3-carbonyl)-2,4-difluorophenyl]-3-fluoropyrrolidine-1-sulfonamide]	5 to 50	35 to 70	1 to 10	> 70
C[C@H]1C[C@@H](CN2CCC(c3ccc4c(c3)CN([C@@H]3CCC(=O)NC3=O)C4=O)CC2)CCN1c1ccc(-c2cnc3[nH]cc(C(=O)c4c(F)ccc(NS(=O)(=O)N5CC[C@@H](F)C5)c4F)c3c2)cc1 [Compound 240, (3R)-N-[3-(5-{4-[(2S,4S)-4-[(4-{2-[(3R)-2,6-dioxopiperidin-3-yl]-1-oxo-2,3-dihydro-1H-isoindol-5-yl}piperidin-1-yl)methyl]-2-methylpiperidin-1-yl]phenyl}-1H-pyrrolo[2,3-b]pyridine-3-carbonyl)-2,4-difluorophenyl]-3-fluoropyrrolidine-1-sulfonamide]	5 to 50	35 to 70	1 to 10	> 70
C[C@@H]1C[C@H](CN2CCC(c3ccc4c(c3)CN([C@H]3CCC(=O)NC3=O)C4=O)CC2)CCN1c1ccc(-c2cnc3[nH]cc(C(=O)c4c(F)ccc(NS(=O)(=O)N5CC[C@@H](F)C5)c4F)c3c2)cc1 [Compound 241, (3R)-N-[3-(5-{4-[(2R,4R)-4-[(4-{2-[(3S)-2,6-dioxopiperidin-3-yl]-1-oxo-2,3-dihydro-1H-isoindol-5-yl}piperidin-1-yl)methyl]-2-methylpiperidin-1-yl]phenyl}-1H-pyrrolo[2,3-b]pyridine-3-carbonyl)-2,4-difluorophenyl]-3-fluoropyrrolidine-1-sulfonamide]	5 to 50	35 to 70	1 to 10	> 70
C[C@@H]1C[C@H](CN2CCC(c3ccc4c(c3)CN([C@@H]3CCC(=O)NC3=O)C4=O)CC2)CCN1c1ccc(-c2cnc3[nH]cc(C(=O)c4c(F)ccc(NS(=O)(=O)N5CC[C@@H](F)C5)c4F)c3c2)cc1 [Compound 242, (3R)-N-[3-(5-{4-[(2R,4R)-4-[(4-{2-[(3R)-2,6-dioxopiperidin-3-yl]-1-oxo-2,3-dihydro-1H-isoindol-5-yl}piperidin-1-yl)methyl]-2-methylpiperidin-1-yl]phenyl}-1H-pyrrolo[2,3-b]pyridine-3-carbonyl)-2,4-difluorophenyl]-3-fluoropyrrolidine-1-sulfonamide]	5 to 50	35 to 70	1 to 10	> 70
CCCS(=O)(=O)Nc1ccc(F)c(C(=O)c2c[nH]c3ncc(-c4ccc(N5CCN(CC6CCN(c7ccc8c(c7)CN(C7CCC(=O)NC7=O)C8=O)CC6)CC5)cc4)cc23)c1F (centres unmarked) [Compound 244, N-[3-(5-{4-[4-({1-[2-(2,6-dioxopiperidin-3-yl)-1-oxo-2,3-dihydro-1H-isoindol-5-yl]piperidin-4-yl}methyl)piperazin-1-yl]phenyl}-1H-pyrrolo[2,3-b]pyridine-3-carbonyl)-2,4-difluorophenyl]propane-1-sulfonamide]	5 to 50	35 to 70	1 to 10	> 70

Continued, values first:

DC50 (BRAF V600E) [nM]	Dmax (BRAF V600E) [%]	DC50 (BRAF G466V) [nM]	Dmax (BRAF G466V) [%]	Structure (SMILES)
5 to 50	35 to 70	< 1	> 70	CCCS(=O)(=O)Nc1ccc(F)c(C(=O)c2c[nH]c3ncc(-c4ccc(N5CC6(CN(CC7CCN(c8cc9c(c(OC)c8)C(=O)N([C@H]8CCC(=O)NC8=O)C9)CC7)C6)C5)cc4)cc23)c1F [Compound 237, N-{3-[5-(4-{6-[(1-{2-[(3S)-2,6-dioxopiperidin-3-yl]-7-methoxy-1-oxo-2,3-dihydro-1H-isoindol-5-yl}piperidin-4-yl)methyl]-2,6-diazaspiro[3.3]heptan-2-yl}phenyl)-1H-pyrrolo[2,3-b]pyridine-3-carbonyl]-2,4-difluorophenyl}propane-1-sulfonamide]
5 to 50	35 to 70	1 to 10	> 70	CCCS(=O)(=O)Nc1ccc(F)c(C(=O)c2c[nH]c3ncc(-c4ccc(N5CC6(CN(CC7CCN(c8cc9c(c(OC)c8)C(=O)N([C@@H]8CCC(=O)NC8=O)C9)CC7)C6)C5)cc4)cc23)c1F [Compound 238, N-{3-[5-(4-{6-[(1-{2-[(3R)-2,6-dioxopiperidin-3-yl]-7-methoxy-1-oxo-2,3-dihydro-1H-isoindol-5-yl}piperidin-4-yl)methyl]-2,6-diazaspiro[3.3]heptan-2-yl}phenyl)-1H-pyrrolo[2,3-b]pyridine-3-carbonyl]-2,4-difluorophenyl}propane-1-sulfonamide]
5 to 50	35 to 70	1 to 10	> 70	CCCS(=O)(=O)Nc1ccc(F)c(C(=O)c2c[nH]c3ncc(-c4ccc(N5CCN(CC6CCN(c7ccc8c(c7)CN([C@H]7CCC(=O)NC7=O)C8=O)CC6)CC5)cc4)cc23)c1F [Compound 243, N-{3-[5-(4-{4-[(1-{2-[(3S)-2,6-dioxopiperidin-3-yl]-1-oxo-2,3-dihydro-1H-isoindol-5-yl}piperidin-4-yl)methyl]piperazin-1-yl}phenyl)-1H-pyrrolo[2,3-b]pyridine-3-carbonyl]-2,4-difluorophenyl}propane-1-sulfonamide]
5 to 50	35 to 70	1 to 10	> 70	CCCS(=O)(=O)Nc1ccc(F)c(C(=O)c2c[nH]c3ncc(-c4ccc(N5CCC(CN6CCN(c7ccc8c(c7)CN([C@H]7CCC(=O)NC7=O)C8=O)CC6)CC5)cc4)cc23)c1F [Compound 245, N-{3-[5-(4-{4-[(4-{2-[(3S)-2,6-dioxopiperidin-3-yl]-1-oxo-2,3-dihydro-1H-isoindol-5-yl}piperazin-1-yl)methyl]piperidin-1-yl}phenyl)-1H-pyrrolo[2,3-b]pyridine-3-carbonyl]-2,4-difluorophenyl}propane-1-sulfonamide]
5 to 50	35 to 70	1 to 10	> 70	O=C1CCC(N2Cc3cc(N4CC5(CN(CC6CCN(c7ccc(-c8cnc9[nH]cc(C(=O)c%10c(F)ccc(NS(=O)(=O)N%11CCC(F)(F)C%11)c%10F)c9c8)cc7)CC6)C5)C4)ccc3C2=O)C(=O)N1 (centres unmarked) [Compound 246, N-[3-(5-{4-[4-({6-[2-(2,6-dioxopiperidin-3-yl)-1-oxo-2,3-dihydro-1H-isoindol-5-yl]-2,6-diazaspiro[3.3]heptan-2-yl}methyl)piperidin-1-yl]phenyl}-1H-pyrrolo [2,3-b]pyridine-3-carbonyl)-2,4-difluorophenyl]-3,3-difluoropyrrolidine-1-sulfonamide]
